# Measurements: patent US20030158250A1, “Agents correcting gene expression regulatory error” (priority 2000, published 2003)
# Test system: HO1 protein
# Assay: HO1 protein induction in RAW 264.7 cells (Western blot)
# Type: cell-based
# Parameters: key to Intensity of Bands of HO1 Protein: those showing no bands are indicated by “−,”; the intensities of the bands are indicated by +−, +, ++ in the ascending order of the intensities of the bands; the intensities of the bands are indicated by +−, +, ++ in the ascending order of the intensities of the bands; the intensities of the bands are indicated by +−, +, ++ in the ascending order of the intensities of the bands
# Conditions: 15 hours
# Description: RAW 264.7 cells (ATCC TIB 71) were suspended in a Dulbecco's modified Eagle's medium (manufactured by Bio Whittaker; 12-604F) containing 10% fetal bovine serum (manufactured by Gibco), so as to have a concentration of 3×10^5 cells/ml. The cell suspension was added to each well of a 6-well microtiter plate in a volume of 5 ml each. The cells were cultured at 37° C. in the presence of 5% CO2 gas overnight. To each well was added 50 μl of 4 mM, 2 mM or 1 mM DGE aqueous solution (each of final concentrations: 40 μM, 20 μM or 10 μM), and the cells were cultured for 15 hours. […] The cells were harvested by peeling off the cells from the plate with a scraper. The harvested cells were suspended in 0.1 M Tris-HCl buffer (pH 7.5) containing 0.05 mM pepstatin (manufactured by Sigma, P5318), 0.2 mM leupeptin (manufactured by Sigma, L2884), 1 mM phenylmethylsulfonyl fluoride (manufactured by nakalai tesque, 273-27), 10 mM disodium dihydrogenethylenediaminetetraacetate and 0.1% Triton X-100, and subjected to freezing and thawing once. Thereafter, the supernatant obtained by centrifugation was used as a protein fraction. The protein content in the protein fraction was assayed by Micro BCA Protein Assay Reagent (one manufactured by Pierce sold by Takara Shuzo Co., Ltd., P7411). Each of the resulting protein fraction samples was mixed with an equal volume of 0.125 M Tris-HCl buffer (pH 6.8) containing 4% sodium lauryl sulfate (SDS), 2% 2-mercaptoethanol,
# 0.001% Bromophenol Blue and 20% glycerol, and the mixture was treated at 100° C. for 5 minutes. A mixture containing a protein in an amount of 10 μg or so was loaded on 12.5% SDS-polyacrylamide gel, and electrophoresed with a constant current of 20 mA. In a blotting buffer containing 48 mM Tris, 39 mM glycine, 20% methanol, 0.0375% SDS, the gel after the electrophoresis was transferred to a PDVF membrane (manufactured by Millipore Corporation, IPVHOOO 10) in accordance with the attached protocol, using transblot SD cell semi-drive blotting device (manufactured by BioRad), at a constant voltage of 15 V for 25 minutes. The transferred PVDF membrane was blocked overnight in a Block Ace (manufactured by DAINIPPON PHARMACEUTICAL CO., LTD., UK-B25) solution at 4° C. The blocked membrane was washed for 15 minutes thrice with phosphate-buffered physiological saline containing 0.1% Tween 20 under gentle shaking. Thereafter, the membrane was subjected to the reaction under gentle shaking in phosphate-buffered physiological saline containing 10% Block Ace with a 200 ng/ml anti-HOl antibody (N-19, manufactured by Santa Cruz, sc-7696) and 0.1% Tween 20 at room temperature for 1 hour, and was washed for 15 minutes thrice with phosphate-buffered physiological saline containing 0.1% Tween 20 under gentle shaking. Next, the membrane was subjected to the reaction under gentle shaking in phosphate-buffered physiological saline with 10% Block Ace with 0.1% peroxidase-conjugated rabbit anti-goat IgG (H+L) antibody (manufactured by Zymed, 61-1620) and 0.1% Tween 20 at room temperature for 1 hour, and was washed for 15 minutes five times with phosphate-buffered physiological saline containing 0.1% Tween 20 under gentle shaking. Subsequently, a PVDF membrane was stained by using Western blot Chemiluminescence Reagent Plus (one manufactured by NEN Life Science Products sold by Daiichikagaku, NEL103) in accordance with the attached protocol, and sensitized on an X-ray film (manufactured by Kodak, CAT 1651454). The sensitized film was developed with FPM800 (manufactured by Fuji Photo Film Co., Ltd.).
# As a result, there could be confirmed a band ascribed to HO1 protein in the group with addition of DGE. […] In the table, + symbols were given in accordance with the intensity of the band for HO1 protein. In other words, in Table 3, those showing no bands are indicated by “−,” and the intensities of the bands are indicated by +−, +, ++ in the ascending order of the intensities of the bands.
structure (smiles),measurement,setting,value
"O=C1C=CC(CO)OC1O [DGE, L-glycero-1,5-epoxy-1αβ,6-dihydroxy-cis-hex-3-en-2-one]",induction action for HO production (band ascribed to HO1 protein),DGE at 10 to 40 μM,DGE concentration-dependent
same,Intensity of Bands of HO1 Protein,final concentration 10 μM,+−
same,Intensity of Bands of HO1 Protein,final concentration 20 μM,+
same,Intensity of Bands of HO1 Protein,final concentration 40 μM,++
